Data from article PMC8286840, “Identifying SARS-CoV-2 antiviral compounds by screening for small molecule inhibitors of Nsp3 papain-like protease” (Biochemical Journal, 2021).
Where a name gives a salt, the structure may show the parent alone. Read-outs that look alike come from different tables or passages of the source. Where a SMILES comes first, the peptide text is derived from it. The star is where a group is joined. Cbz = O=C(OCc1ccccc1)*; CH2F = FC*

Experiments:
[1] = biological target: T1, SARS-CoV-2 PLpro (nsp3 1564–1878) (Severe acute respiratory syndrome coronavirus 2, UniProt P0DTD1); experiment: biochemical; set-up: FRET-quenched peptide (Pro3) cleavage by PLpro, 10 min pre-incubation, slope over 20 min, normalised to no-compound control; conditions: low concentration screen, read-out: % of control remaining
[2] = biological target: T1, SARS-CoV-2 PLpro (nsp3 1564–1878); experiment: biochemical; set-up: FRET-quenched peptide (Pro3) cleavage by PLpro, 10 min pre-incubation, slope over 20 min, normalised to no-compound control; conditions: high concentration screen, read-out: % of control remaining

With N#CC(C#N)=C(N)/C(C#N)=C/c1ccc(O)cc1 [Tyrphostin AG 112] as the compound, how does the remaining activity at 1.25 µM ([1]; Well no.=1245) read?
The remaining activity at 1.25 µM was 95.9%.

And the remaining activity at 3.75 µM ([2]; Well no.=1245)?
The remaining activity at 3.75 µM was 95.9%.

With CN(C)c1ccnc2sc3c(=O)n(N4CCCCCC4)cnc3c12 [3-(1-azepanyl)-9-(dimethylamino)pyrido[3',2':4,5]thieno[3,2-d]pyrimidin-4(3H)-one] as the compound, how does the remaining activity at 1.25 µM ([1]; Well no.=5949) read?
The remaining activity at 1.25 µM was 92.3%.

What about the remaining activity at 3.75 µM ([2]; Well no.=5949) of the same compound?
The remaining activity at 3.75 µM was 93.5%.

What does the source list for O=c1cc(CN2CCOCC2)occ1OCCCCCSc1ccnc2cc(C(F)(F)F)ccc12 [EHT 1864]?
remaining activity at 1.25 µM ([1]; Well no.=8435): 93.5%; remaining activity at 3.75 µM ([2]; Well no.=8435): 90.8%

Which results are given for C[C@]12CC[C@H](O)CC1=CC[C@@H]1[C@@H]2CC[C@]2(C)C(c3cccnc3)=CC[C@@H]12 [Abiraterone (CB-7598)]?
remaining activity at 1.25 µM ([1]; Well no.=5047): 101%; remaining activity at 3.75 µM ([2]; Well no.=5047): 106%

Which results are given for COc1cc(NC(=O)c2ccc(-c3ccc(Cl)cc3)o2)cc(OC)c1 [A-803467]?
remaining activity at 1.25 µM ([1]; Well no.=5117): 105%; remaining activity at 3.75 µM ([2]; Well no.=5117): 103%

Which results are given for CC1=NN(c2ccc(C(=O)O)cc2)C(=O)/C1=C\c1ccc(-c2cc(C)c(C)cc2[N+](=O)[O-])o1 [C646]?
remaining activity at 1.25 µM ([1]; Well no.=5456): 98.3%; remaining activity at 3.75 µM ([2]; Well no.=5456): 101%

Which results are given for O=c1ccn([C@H]2C[C@H](O)[C@@H](CO)O2)c(=O)[nH]1 [2'-Deoxyuridine]?
remaining activity at 1.25 µM ([1]; Well no.=6627): 107%; remaining activity at 1.25 µM ([1]; Well no.=8893): 103%; remaining activity at 3.75 µM ([2]; Well no.=6627): 102%; remaining activity at 3.75 µM ([2]; Well no.=8893): 103%

For CC(C)(Cc1ccc2ccccc2c1)NC[C@@H](O)COc1cccc(Cl)c1C#N [NPS-2143 (hydrochloride)], which remaining activity at 1.25 µM ([1]; Well no.=7051) is on record?
Its remaining activity at 1.25 µM is 107%.

What about the remaining activity at 3.75 µM ([2]; Well no.=7051) of the same compound?
The remaining activity at 3.75 µM was 105%.

How did the remaining activity at 1.25 µM ([1]; Well no.=537) turn out when c1ccc(C2CC2)c(OCC2=NCCN2)c1 [Cirazoline hydrochloride] was run?
The remaining activity at 1.25 µM was 106%.

What about the remaining activity at 3.75 µM ([2]; Well no.=537) of the same compound?
Its remaining activity at 3.75 µM is 103%.

NC(N)=NC(N)=Nc1cccc(Cl)c1 [1-(m-Chlorophenyl)-biguanide hydrochloride] was tested. Which remaining activity at 1.25 µM ([1]; Well no.=487) did it give?
The remaining activity at 1.25 µM was 106%.

What about the remaining activity at 3.75 µM ([2]; Well no.=487) of the same compound?
Its remaining activity at 3.75 µM is 103%.

Which remaining activity at 1.25 µM ([1]; Well no.=5072) does the source give for CC[C@@H](CO)NCCN[C@@H](CC)CO [Ethambutol HCl] here?
Its remaining activity at 1.25 µM is 99.5%.

And the remaining activity at 3.75 µM ([2]; Well no.=5072)?
Its remaining activity at 3.75 µM is 100%.

Which remaining activity at 1.25 µM ([1]; Well no.=7116) does the source give for COC(=O)C[C@H](NC(=O)[C@H](C)NC(=O)[C@@H](NC(=O)OCc1ccccc1)C(C)C)C(=O)CF [Z-VAD(OMe)-FMK] (Cbz-Val-Ala-Asp(OMe)-CH2F) here?
The remaining activity at 1.25 µM was 101%.

What about the remaining activity at 1.25 µM ([1]; Well no.=8598) of the same compound?
Its remaining activity at 1.25 µM is 100%.

What about the remaining activity at 3.75 µM ([2]; Well no.=7116) of the same compound?
The remaining activity at 3.75 µM was 94.5%.

What about the remaining activity at 3.75 µM ([2]; Well no.=8598) of the same compound?
Its remaining activity at 3.75 µM is 100%.

Which remaining activity at 1.25 µM ([1]; Well no.=4912) does the source give for C[N+]1(C)[C@@H]2C[C@@H](OC(=O)C(O)(c3cccs3)c3cccs3)C[C@H]1[C@@H]1O[C@@H]12 [Tiotropium Bromide hydrate] here?
The remaining activity at 1.25 µM was 100%.

What about the remaining activity at 3.75 µM ([2]; Well no.=4912) of the same compound?
Its remaining activity at 3.75 µM is 95.8%.

What does the source list for Cc1[nH]c(/C=C2\C(=O)Nc3ccccc32)c(C)c1CCC(=O)O [TSU-68 (SU6668)]?
remaining activity at 1.25 µM ([1]; Well no.=4899): 99.4%; remaining activity at 3.75 µM ([2]; Well no.=4899): 95.8%

For CN1CCN(C2=Nc3cc(Cl)ccc3Nc3ccccc32)CC1 [Clozapine], which remaining activity at 1.25 µM ([1]; Well no.=182) is on record?
Its remaining activity at 1.25 µM is 99.6%.

What about the remaining activity at 1.25 µM ([1]; Well no.=1813) of the same compound?
The remaining activity at 1.25 µM was 98.4%.

What about the remaining activity at 1.25 µM ([1]; Well no.=6569) of the same compound?
Its remaining activity at 1.25 µM is 98.5%.

And the remaining activity at 3.75 µM ([2]; Well no.=182)?
Its remaining activity at 3.75 µM is 96.2%.

What about the remaining activity at 3.75 µM ([2]; Well no.=1813) of the same compound?
The remaining activity at 3.75 µM was 95.3%.

What about the remaining activity at 3.75 µM ([2]; Well no.=6569) of the same compound?
The remaining activity at 3.75 µM was 97.3%.

What does the source list for N#CC(c1ccc(Cl)cc1)c1c(Cl)cc(-n2ncc(=O)[nH]c2=O)cc1Cl (stereo not shown) [Diclazuril]?
remaining activity at 1.25 µM ([1]; Well no.=5268): 91.9%; remaining activity at 3.75 µM ([2]; Well no.=5268): 96.8%

How did the remaining activity at 1.25 µM ([1]; Well no.=1779) turn out when CC(C)NCC(O)c1ccc(N)c(C#N)c1 (stereo not shown) [Cimaterol] was run?
Its remaining activity at 1.25 µM is 102%.

What about the remaining activity at 3.75 µM ([2]; Well no.=1779) of the same compound?
The remaining activity at 3.75 µM was 99.7%.

Which results are given for Cc1nnc2ccc(-c3cccc(C(F)(F)F)c3)nn12 [3-Methyl-6-(3-[trifluoromethyl]phenyl)-1,2,4-triazolo[4,3-b]pyridazine]?
remaining activity at 1.25 µM ([1]; Well no.=828): 106%; remaining activity at 3.75 µM ([2]; Well no.=828): 105%

With CCOCc1cc(OC)c(-c2ccc(C[C@H](NC(=O)c3c(F)cccc3F)C(=O)O)cc2)c(OC)c1 [Firategrast] as the compound, how does the remaining activity at 1.25 µM ([1]; Well no.=7930) read?
Its remaining activity at 1.25 µM is 103%.

And the remaining activity at 3.75 µM ([2]; Well no.=7930)?
The remaining activity at 3.75 µM was 99%.

Which results are given for CN(C(=O)CCCOc1ccc2[nH]c(=O)ccc2c1)C1CCCCC1 [Cilostamide]?
remaining activity at 1.25 µM ([1]; Well no.=234): 91.5%; remaining activity at 1.25 µM ([1]; Well no.=2142): 95.9%; remaining activity at 3.75 µM ([2]; Well no.=234): 94.4%; remaining activity at 3.75 µM ([2]; Well no.=2142): 98.8%

For CCN(CC)CCOC(=O)C(c1ccccc1)c1ccccc1 [Adiphenine HCl], which remaining activity at 1.25 µM ([1]; Well no.=5060) is on record?
Its remaining activity at 1.25 µM is 105%.

And the remaining activity at 3.75 µM ([2]; Well no.=5060)?
The remaining activity at 3.75 µM was 105%.

With CC(CN(C)C)NC(=O)c1cccc2[nH]c(-c3ccncc3)nc12 (stereo not shown) [ChX710] as the compound, how does the remaining activity at 1.25 µM ([1]; Well no.=8551) read?
The remaining activity at 1.25 µM was 108%.

What about the remaining activity at 3.75 µM ([2]; Well no.=8551) of the same compound?
The remaining activity at 3.75 µM was 101%.

Which results are given for CCCC[S+]([O-])c1sc2nc(-c3cccs3)cc(-c3ccccc3)c2c1N (stereo not shown) [SW033291]?
remaining activity at 1.25 µM ([1]; Well no.=8674): 101%; remaining activity at 3.75 µM ([2]; Well no.=8674): 97.5%

Which results are given for C[C@]12C=CC(=O)C=C1CC[C@H]1[C@@H]3C[C@@H](O)[C@](O)(C(=O)CO)[C@@]3(C)C[C@H](O)[C@@]12F [Triamcinolone]?
remaining activity at 1.25 µM ([1]; Well no.=1435): 98.1%; remaining activity at 1.25 µM ([1]; Well no.=2004): 108%; remaining activity at 1.25 µM ([1]; Well no.=6419): 94.8%; remaining activity at 3.75 µM ([2]; Well no.=1435): 100%; remaining activity at 3.75 µM ([2]; Well no.=2004): 106%; remaining activity at 3.75 µM ([2]; Well no.=6419): 96.2%

With CC(C)C[C@@H](C(=O)O)N(C)C(=O)OCC1c2ccccc2-c2ccccc21 [Fmoc-N-Me-Leu-OH] as the compound, how does the remaining activity at 1.25 µM ([1]; Well no.=7972) read?
Its remaining activity at 1.25 µM is 92.7%.

And the remaining activity at 3.75 µM ([2]; Well no.=7972)?
The remaining activity at 3.75 µM was 94.1%.

Which remaining activity at 1.25 µM ([1]; Well no.=5285) does the source give for COCCOc1ccc2c(c1)ncn2-c1ccc2cccc(N3CCC(N)CC3)c2n1 [CP 673451] here?
Its remaining activity at 1.25 µM is 97.9%.

What about the remaining activity at 3.75 µM ([2]; Well no.=5285) of the same compound?
The remaining activity at 3.75 µM was 102%.

CN(C)CCN(Cc1ccccc1)c1ccccn1 [Tripelennamine HCl] was tested. Which remaining activity at 1.25 µM ([1]; Well no.=4979) did it give?
Its remaining activity at 1.25 µM is 94.3%.

What about the remaining activity at 3.75 µM ([2]; Well no.=4979) of the same compound?
The remaining activity at 3.75 µM was 93%.

Which results are given for C=C1CC[C@H](O)C/C1=C/C=C1\CCC[C@]2(C)[C@@H]([C@H](C)/C=C/[C@H](C)C(C)C)CC[C@@H]12 [Vitamin D2]?
remaining activity at 1.25 µM ([1]; Well no.=7411): 107%; remaining activity at 3.75 µM ([2]; Well no.=7411): 106%

How did the remaining activity at 1.25 µM ([1]; Well no.=4807) turn out when CCOc1cc(N)c(Cl)cc1C(=O)NCC1CN(Cc2ccc(F)cc2)CCO1 (stereo not shown) [Mosapride citrate] was run?
The remaining activity at 1.25 µM was 101%.

What about the remaining activity at 3.75 µM ([2]; Well no.=4807) of the same compound?
Its remaining activity at 3.75 µM is 103%.

What does the source list for CCCCCC[C@@H]([C@@H](C)O)n1cnc2c(N)ncnc21 [erythro-9-(2-Hydroxy-3-nonyl)adenine hydrochloride]?
remaining activity at 1.25 µM ([1]; Well no.=513): 105%; remaining activity at 3.75 µM ([2]; Well no.=513): 105%

Which results are given for COc1ccc(/C=C\c2cc(OC)c(OC)c(OC)c2)cc1O [Combretastatin A4]?
remaining activity at 1.25 µM ([1]; Well no.=5540): 101%; remaining activity at 3.75 µM ([2]; Well no.=5540): 102%
